Source: publication PMC10683028 (Journal of Medicinal Chemistry, 2023)
≈ marks a conversion by molar mass, not a printed value.

Tests used:
in vitro = conditions: PAMPA, pH 7.4
Experimental: (§1) In vitro ADME experiments were performed exactly as reported.[38]−[40]

[1] = pH 7.4
Experimental: Test compounds were prepared as 0.5 mM solutions in 50:50 acetonitrile:water and analyzed by reversed-phase HPLC-UV (wavelength 254 nm) using a Phenomenex Luna C18 100 Å 150 × 4.6 mm 5 μm column with a gradient of aqueous phase (50 mM ammonium acetate, pH 7.4) and mobile phase (acetonitrile) as described.[41],[42]

physchem = conditions: aqueous medium at pH 7.4, pH 7.4
Experimental: as §1

SMILES | Papp (in vitro) [×10⁻⁶ cm/s] | CHI-logDpH7.4 [1] | solubility (physchem) [µM]
COc1ccc(-c2noc(C(=O)NC(C#N)Cc3ccc(C(=O)N4CC(OC)C4)cc3)n2)cc1OC (stereo not drawn) [compound 34, N-(1-Cyano-2-(4-(3-methoxyazetidine-1-carbonyl)phenyl)ethyl)-3-(3,4-dimethoxyphenyl)-1,2,4-oxadiazole-5-carboxamide] | 1.5 | 2.2 | 164 (≈ 80.6 µg/mL)
COc1ccc(-c2noc(C(=O)NCCc3ccc(C(=O)N4CC5(COC5)C4)cc3)n2)cc1OC [compound 18, N-(4-(2-Oxa-6-azaspiro[3.3]heptane-6-carbonyl)phenethyl)-3-(3,4-dimethoxyphenyl)-1,2,4-oxadiazole-5-carboxamide] | 2.6 | 1.8 | 12 (≈ 5.74 µg/mL)
COc1ccc(-c2nnc(C(=O)NCCc3ccc(C(=O)N4CC(OC)C4)cc3)o2)cc1OC [compound 104, 5-(3,4-Dimethoxyphenyl)-N-(4-(3-methoxyazetidine-1-carbonyl)phenethyl)-1,3,4-oxadiazole-2-carboxamide] | 0.8 | 1.7 | 11 (≈ 5.13 µg/mL)
COc1ccc(-c2noc(C(=O)NCCc3ccc(C(=O)N4CC(OC)C4)cc3)n2)cc1OCC1CC1 [compound 77, 3-[3-(Cyclopropylmethoxy)-4-methoxyphenyl]-N-[2-[4-(3-methoxyazetidine-1-carbonyl)phenyl]ethyl]-1,2,4-oxadiazole-5-carboxamide] | 3.6 | 2.9 | 2 (≈ 1.01 µg/mL)
